± gives the expanded uncertainty stated by the source.
Tests used:
[1] = Molar enthalpy of transition or fusion; conditions: Crystal; DSC
[2] = for mass density / electrical conductivity / viscosity: 101.33 kPa, Liquid; for mass density: Vibrating tube method; for viscosity: Concentric cylinders viscometry; for Normal melting temperature: Crystal; for Normal melting temperature / Glass transition temperature: DTA

C=CC[NH+](C)CC=C.O=S(=O)([O-])C(F)(F)F
Conditions | Glass transition temperature [°C] | Molar enthalpy of transition or fusion [kcal/mol] | Normal melting temperature [°C]
[1] | – | 2.63 ± 0.239 | –
[2] | -88.00 ± 5 | – | -19.00 ± 1

[2]
Conditions | electrical conductivity [S/m] | mass density [kg/m3] | viscosity [mPa·s]
288.15 K | – | 1268 ± 27 | –
293.15 K | – | 1261 ± 26 | –
298.15 K | – | 1253 ± 26 | –
303.15 K | 0.469 ± 0.009 | 1246 ± 26 | 38.5 ± 1.3
308.15 K | – | 1239 ± 26 | –
313.15 K | – | 1231 ± 26 | –
323.15 K | 0.893 ± 0.018 | – | 19.7 ± 0.6
343.15 K | 1.43 ± 0.03 | – | 11.6 ± 0.4
363.15 K | 2.06 ± 0.04 | – | 7.61 ± 0.25
383.15 K | 2.74 ± 0.06 | – | 5.39 ± 0.18
403.15 K | 3.54 ± 0.07 | – | –
423.15 K | 4.39 ± 0.09 | – | –
443.15 K | 5.21 ± 0.1 | – | –

C=CC[NH+](CC)CC.O=S(=O)([O-])C(F)(F)F [N,N-diethylprop-2-en-1-aminium trifluoromethanesulfonate]
Conditions | Glass transition temperature [°C] | Molar enthalpy of transition or fusion [kcal/mol] | Normal melting temperature [°C]
[1] | – | 5.02 ± 0.478 | –
[2] | -99.00 ± 6 | – | -14.00 ± 1

[2]
Conditions | electrical conductivity [S/m] | mass density [kg/m3] | viscosity [mPa·s]
288.15 K | – | 1270 ± 27 | –
293.15 K | – | 1263 ± 26 | –
298.15 K | – | 1255 ± 26 | –
303.15 K | 0.419 ± 0.008 | 1247 ± 26 | 51 ± 1.7
308.15 K | – | 1240 ± 26 | –
313.15 K | – | 1232 ± 26 | –
323.15 K | 0.785 ± 0.016 | – | 25.5 ± 0.8
343.15 K | 1.26 ± 0.03 | – | 14.9 ± 0.5
363.15 K | 1.81 ± 0.04 | – | 9.64 ± 0.31
383.15 K | 2.43 ± 0.05 | – | 6.7 ± 0.22
403.15 K | 3.17 ± 0.06 | – | 4.94 ± 0.16
423.15 K | 3.91 ± 0.08 | – | 3.87 ± 0.13
443.15 K | 4.71 ± 0.09 | – | –

CCC[NH+](CC)CC.O=S(=O)([O-])C(F)(F)F [N,N-diethylpropan-1-aminium trifluoromethanesulfonate]
Conditions | Molar enthalpy of transition or fusion [kcal/mol] | Normal melting temperature [°C]
[1] | 5.02 ± 0.478 | –
[2] | – | -14.00 ± 1

[2]
Conditions | electrical conductivity [S/m] | mass density [kg/m3] | viscosity [mPa·s]
288.15 K | – | 1237 ± 26 | –
293.15 K | – | 1229 ± 26 | –
298.15 K | – | 1222 ± 26 | –
303.15 K | 0.384 ± 0.008 | 1215 ± 25 | 54.3 ± 1.8
308.15 K | – | 1208 ± 25 | –
313.15 K | – | 1201 ± 25 | –
323.15 K | 0.71 ± 0.014 | – | 26.8 ± 0.9
343.15 K | 1.13 ± 0.02 | – | 15.3 ± 0.5
363.15 K | 1.71 ± 0.03 | – | 9.76 ± 0.32
383.15 K | 2.22 ± 0.04 | – | 6.71 ± 0.22
403.15 K | 2.88 ± 0.06 | – | 4.87 ± 0.16
423.15 K | 3.57 ± 0.07 | – | 3.73 ± 0.12
443.15 K | 4.31 ± 0.09 | – | –

C=CC[NH+](C)C.O=S(=O)([O-])C(F)(F)F [N,N-dimethylprop-2-en-1-aminium trifluoromethanesulfonate]
Conditions | Molar enthalpy of transition or fusion [kcal/mol] | Normal melting temperature [°C]
[1] | 5.02 ± 0.478 | –
[2] | – | 16.00 ± 1

[2]
Conditions | electrical conductivity [S/m] | mass density [kg/m3] | viscosity [mPa·s]
288.15 K | – | 1318 ± 28 | –
293.15 K | – | 1311 ± 28 | –
298.15 K | – | 1303 ± 27 | –
303.15 K | 0.968 ± 0.019 | 1295 ± 27 | 28.8 ± 0.9
308.15 K | – | 1288 ± 27 | –
313.15 K | – | 1280 ± 27 | –
323.15 K | 1.74 ± 0.04 | – | 16.4 ± 0.5
343.15 K | 2.65 ± 0.05 | – | 10.4 ± 0.3
363.15 K | 3.73 ± 0.07 | – | 7.11 ± 0.23
383.15 K | 4.92 ± 0.1 | – | 5.18 ± 0.17
403.15 K | 6.19 ± 0.12 | – | 3.95 ± 0.13
423.15 K | 7.48 ± 0.15 | – | 3.17 ± 0.1
443.15 K | 8.82 ± 0.18 | – | –

CCC[NH+](C)C.O=S(=O)([O-])C(F)(F)F [N,N-dimethylpropan-1-aminium trifluoromethanesulfonate]
Conditions | Molar enthalpy of transition or fusion [kcal/mol] | Normal melting temperature [°C]
[1] | 4.78 ± 0.478 | –
[2] | – | 20.00 ± 1

[2]
Conditions | electrical conductivity [S/m] | mass density [kg/m3] | viscosity [mPa·s]
288.15 K | – | 1291 ± 27 | –
293.15 K | – | 1284 ± 27 | –
298.15 K | – | 1276 ± 27 | –
303.15 K | 0.901 ± 0.018 | 1269 ± 27 | 33.2 ± 1.1
308.15 K | – | 1262 ± 26 | –
313.15 K | – | 1254 ± 26 | –
323.15 K | 1.57 ± 0.03 | – | 18 ± 0.6
343.15 K | 2.39 ± 0.05 | – | 11 ± 0.4
363.15 K | 3.25 ± 0.07 | – | 7.42 ± 0.24
383.15 K | 4.29 ± 0.09 | – | 5.32 ± 0.17
403.15 K | 5.3 ± 0.11 | – | 4.04 ± 0.13
423.15 K | 6.4 ± 0.13 | – | 3.19 ± 0.1
443.15 K | 7.68 ± 0.15 | – | –

CCC[NH+](C)CCC.O=S(=O)([O-])C(F)(F)F [N-methyl-N-propylpropan-1-aminium trifluoromethanesulfonate]
Conditions | Molar enthalpy of transition or fusion [kcal/mol] | Normal melting temperature [°C]
[1] | 3.35 ± 0.478 | –
[2] | – | 17.00 ± 1

[2]
Conditions | electrical conductivity [S/m] | mass density [kg/m3] | viscosity [mPa·s]
293.15 K | – | 1218 ± 25 | –
298.15 K | – | 1211 ± 25 | –
303.15 K | 0.415 ± 0.008 | 1203 ± 25 | 48.7 ± 1.6
308.15 K | – | 1196 ± 25 | –
313.15 K | – | 1189 ± 25 | –
323.15 K | 0.772 ± 0.015 | – | 23.9 ± 0.8
343.15 K | 1.23 ± 0.03 | – | 13.6 ± 0.4
363.15 K | 1.81 ± 0.04 | – | 8.63 ± 0.28
383.15 K | 2.48 ± 0.05 | – | 5.96 ± 0.19
403.15 K | 3.18 ± 0.06 | – | 4.4 ± 0.14
423.15 K | 4.04 ± 0.08 | – | 3.44 ± 0.11
443.15 K | 4.88 ± 0.1 | – | –

CC[NH+](C)CC.O=S(=O)([O-])C(F)(F)F [diethylmethylammonium trifluoromethanesulfonate]
Conditions | Molar enthalpy of transition or fusion [kcal/mol] | Normal melting temperature [°C]
[1] | 3.82 ± 0.478 | –
[2] | – | -6.00 ± 1

[2]
Conditions | electrical conductivity [S/m] | mass density [kg/m3] | viscosity [mPa·s]
288.15 K | – | 1299 ± 27 | –
293.15 K | – | 1292 ± 27 | –
298.15 K | – | 1284 ± 27 | –
303.15 K | 0.833 ± 0.017 | 1277 ± 27 | 36.9 ± 1.2
308.15 K | – | 1270 ± 27 | –
313.15 K | – | 1262 ± 26 | –
323.15 K | 1.45 ± 0.03 | – | 19.4 ± 0.6
343.15 K | 2.15 ± 0.04 | – | 12.1 ± 0.4
363.15 K | 3.15 ± 0.06 | – | 8.13 ± 0.26
383.15 K | 3.91 ± 0.08 | – | 5.82 ± 0.19
403.15 K | 4.73 ± 0.09 | – | 4.41 ± 0.14
423.15 K | 5.46 ± 0.11 | – | 3.48 ± 0.11
443.15 K | 5.97 ± 0.12 | – | –
